Results published in US11312713B2, “Imidazo[4,5-C]quinoline derivatives as LRRK2 inhibitors” (Pfizer Inc., priority 2017, dated 2022).
pIC50: −log10 of the molar value. Like-named read-outs stand apart in the source and are kept apart here.

Assays:
mutant G2019S LRRK2 = mutant G2019S LRRK2 (Homo sapiens (Human), UniProt Q5S007, G2019S); assay: LRRK2 kinase assay (LanthaScreen), G2019S mutant; format: biochemical; details: G2019S mutant LRRK2; LanthaScreen, LRRKtide substrate; read-out: LRRK2, G2019S IC50
Description: LRRK2 kinase activity was measured using Lantha Screen technology from Invitrogen. GST-tagged truncated LRRK2 from Invitrogen (Cat #PV4874) was incubated with a fluorescein-labeled peptide substrate based upon ezrin/radixin/moesin (ERM), also known as LRRKtide (Invitrogen cat #PR8976A), in the presence of a dose response of compound. Upon completion, the assay was stopped and detected with a terbium labeled anti-phospho-ERM antibody (Invitrogen, cat #PR8975A). […] Using Echo acoustic dispensing, 60 nL of compound was transferred to a low volume Corning 384-well assay plate. 3 μL of a working solution of substrate (200 nM LRRKtide, 2 mM ATP) prepared in assay buffer (50 mM HEPES, pH 7.5, 3 mM MgCl2, with 2 mM DTT and 0.01% Brij35 added fresh) was added to the 60 nL compound assay plate. The kinase reaction was started with 3 μL of a working solution of LRRK2 enzyme at a concentration of 4 μg/m L. The final reaction concentrations were 100 nM LRRKtide, 1 mM ATP, 2 μg/mL LRRK2 enzyme and a compound dose response with a top dose of 3 μM. The reaction was allowed to progress at room temperature for 30 minutes and then stopped with the addition of 6 μL of detection buffer (20 mM Tris pH 7.6, 0.01% NP-40, 6 mM EDTA with 2 nM terbium labeled antiphospho-ERM). […] All final concentrations of substrate ATP and enzyme were the same.

[1] = target: LRRK2, WT (GST-tagged truncated LRRK2) (Homo sapiens, UniProt Q5S007); assay: LRRK2 kinase assay (LanthaScreen), wild type; format: biochemical
How it was run: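 GST-tagged truncated enzyme (2 μg/mL) phosphorylates 100 nM fluorescein-LRRKtide with 1 mM ATP in HEPES pH 7.5, 3 mM MgCl2, DTT, Brij35; 30 min, room temperature, compound dose response top 3 μM. Stopped with EDTA; phospho-ERM detected by terbium anti-phospho-ERM TR-FRET; identical conditions for both enzymes.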

[2] = wild type LRRK2, LanthaScreen, LRRKtide substrate

Sequence of mutant G2019S LRRK2 (Q5S007 whole entry G2019S, the tested form may be a part): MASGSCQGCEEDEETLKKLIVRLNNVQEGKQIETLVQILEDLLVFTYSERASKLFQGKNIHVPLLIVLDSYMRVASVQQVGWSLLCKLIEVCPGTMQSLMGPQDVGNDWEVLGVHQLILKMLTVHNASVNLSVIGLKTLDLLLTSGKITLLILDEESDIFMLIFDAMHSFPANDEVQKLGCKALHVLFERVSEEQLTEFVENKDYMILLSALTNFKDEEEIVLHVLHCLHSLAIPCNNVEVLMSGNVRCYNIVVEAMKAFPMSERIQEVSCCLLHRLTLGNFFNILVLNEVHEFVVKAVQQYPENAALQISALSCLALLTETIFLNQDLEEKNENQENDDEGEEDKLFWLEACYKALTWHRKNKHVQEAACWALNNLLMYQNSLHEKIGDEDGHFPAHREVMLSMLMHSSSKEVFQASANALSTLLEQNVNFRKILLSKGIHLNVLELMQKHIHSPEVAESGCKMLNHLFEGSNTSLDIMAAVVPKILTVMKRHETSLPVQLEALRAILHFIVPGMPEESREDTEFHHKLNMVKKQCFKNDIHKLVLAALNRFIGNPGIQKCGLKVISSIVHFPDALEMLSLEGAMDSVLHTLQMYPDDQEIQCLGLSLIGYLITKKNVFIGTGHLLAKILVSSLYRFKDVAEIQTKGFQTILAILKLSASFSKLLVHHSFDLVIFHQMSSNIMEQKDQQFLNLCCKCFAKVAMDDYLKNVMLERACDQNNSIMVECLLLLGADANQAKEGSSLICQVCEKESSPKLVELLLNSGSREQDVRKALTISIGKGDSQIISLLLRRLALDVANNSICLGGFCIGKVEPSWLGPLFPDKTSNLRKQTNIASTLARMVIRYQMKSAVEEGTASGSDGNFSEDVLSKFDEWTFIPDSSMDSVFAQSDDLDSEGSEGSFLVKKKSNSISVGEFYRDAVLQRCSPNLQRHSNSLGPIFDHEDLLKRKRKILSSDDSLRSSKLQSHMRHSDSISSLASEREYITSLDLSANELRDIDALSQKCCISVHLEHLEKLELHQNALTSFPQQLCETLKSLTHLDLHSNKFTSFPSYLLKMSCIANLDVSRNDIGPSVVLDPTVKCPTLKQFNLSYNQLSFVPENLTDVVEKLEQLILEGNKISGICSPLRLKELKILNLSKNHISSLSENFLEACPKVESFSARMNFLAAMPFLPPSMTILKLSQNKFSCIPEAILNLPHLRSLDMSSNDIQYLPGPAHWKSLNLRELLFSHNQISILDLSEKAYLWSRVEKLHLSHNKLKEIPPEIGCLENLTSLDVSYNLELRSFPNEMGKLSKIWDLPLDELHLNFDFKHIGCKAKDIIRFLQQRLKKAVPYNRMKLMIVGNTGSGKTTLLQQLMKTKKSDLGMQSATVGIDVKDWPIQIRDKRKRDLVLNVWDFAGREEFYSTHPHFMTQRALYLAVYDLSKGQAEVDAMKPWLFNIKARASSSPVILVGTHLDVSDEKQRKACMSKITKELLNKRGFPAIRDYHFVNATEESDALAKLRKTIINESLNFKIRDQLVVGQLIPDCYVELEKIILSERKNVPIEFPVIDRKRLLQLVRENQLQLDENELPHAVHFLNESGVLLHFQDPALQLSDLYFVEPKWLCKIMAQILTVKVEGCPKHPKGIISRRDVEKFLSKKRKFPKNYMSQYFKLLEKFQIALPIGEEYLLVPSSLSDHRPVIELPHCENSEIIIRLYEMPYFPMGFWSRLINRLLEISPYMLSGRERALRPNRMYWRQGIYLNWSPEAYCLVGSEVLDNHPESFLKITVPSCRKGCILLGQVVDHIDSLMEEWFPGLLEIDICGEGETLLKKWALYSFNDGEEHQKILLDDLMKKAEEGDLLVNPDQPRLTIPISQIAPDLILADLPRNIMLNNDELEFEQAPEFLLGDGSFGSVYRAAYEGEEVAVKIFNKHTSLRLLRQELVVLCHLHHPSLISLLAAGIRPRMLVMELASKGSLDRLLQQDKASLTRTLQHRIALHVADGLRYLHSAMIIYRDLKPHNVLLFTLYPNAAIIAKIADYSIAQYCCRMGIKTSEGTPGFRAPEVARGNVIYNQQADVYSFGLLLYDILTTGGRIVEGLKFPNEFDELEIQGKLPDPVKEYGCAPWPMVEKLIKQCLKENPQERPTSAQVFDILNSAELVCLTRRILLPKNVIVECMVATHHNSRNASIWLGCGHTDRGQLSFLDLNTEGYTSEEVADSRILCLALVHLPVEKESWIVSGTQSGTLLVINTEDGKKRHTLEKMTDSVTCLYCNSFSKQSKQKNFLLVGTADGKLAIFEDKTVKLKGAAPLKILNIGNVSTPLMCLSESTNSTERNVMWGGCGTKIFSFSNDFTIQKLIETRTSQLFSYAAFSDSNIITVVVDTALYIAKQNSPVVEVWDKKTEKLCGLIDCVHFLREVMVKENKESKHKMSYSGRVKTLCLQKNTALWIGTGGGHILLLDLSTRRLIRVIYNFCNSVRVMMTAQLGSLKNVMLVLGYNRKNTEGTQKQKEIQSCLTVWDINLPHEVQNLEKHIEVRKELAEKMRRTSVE

| Structure (SMILES) | pIC50 (mutant G2019S LRRK2) | pIC50 [1, 2] | pIC50 ([1]; LanthaScreen, LRRKtide substrate, 1 mM ATP) | pIC50 [1] |
| --- | --- | --- | --- | --- |
| Cc1cc(Cc2nc3cnc4ccc(C#N)cc4c3n2[C@@H]2CCN(C)C2)on1 [Example 35, 2-[(3-methyl-1,2-oxazol-5-yl)methyl]-1-[(3R)-1-methylpyrrolidin-3-yl]-1H-imidazo [4,5-c]quinoline-8-carbonitrile] | 8.21 | 8.12 |  |  |
| Cc1cc(Cc2nc3cnc4ccc(Cl)cc4c3n2C2CN(C)CC2(F)F)no1 (stereo not shown) [Example 52, 8-chloro-1-(4,4-difluoro-1-methylpyrrolidin-3-yl)-2-[(5-methyl-1,2-oxazol-3-yl)methyl]-1H-imidazo[4,5-c]quinoline] | 7.89 | 7.82 |  |  |
| C[C@@H]1C[C@H](n2c(C3CCCC3)nc3cnc4ccc(C#N)cc4c32)CCO1 [Example 30, 2-cyclopentyl-1-[(2R,4R)-2-methyltetrahydro-2H-pyran-4-yl]-1H-imidazo[4,5-c]quinoline-8-carbonitrile] | 7.66 | 7.69 |  |  |
| C[C@@H]1C[C@H](n2c(Cc3nccs3)nc3cnc4ccc(F)cc4c32)CCO1 [Example 64, 8-fluoro-1-[(2R,4R)-2-methyltetrahydro-2H-pyran-4-yl]-2-(1,3-thiazol-2-ylmethyl)-1H-imidazo[4,5-c]quinoline] | 8.16 | 8.01 |  |  |
| CCc1nc2cnc3ccc(Cl)cc3c2n1[C@@H]1CCO[C@H](CC#N)C1 [Example 1, [(2S,4R)-4-(8-Chloro-2-ethyl-1H-imidazo[4,5-c]quinolin-1-yl)tetrahydro-2H-pyran-2-yl]acetonitrile] | 8.05 | 7.99 |  |  |
| Cc1nnc(Cc2nc3cnc4ccc(C#N)cc4c3n2[C@@H]2CCN(C)C2)s1 [Example 37, 1-[(3R)-1-methylpyrrolidin-3-yl]-2-[(5-methyl-1,3,4-thiadiazol-2-yl)methyl]-1H-imidazo[4,5-c]quinoline-8-carbonitrile] | 7.90 | 8.28 |  |  |
| Cc1cc(Cc2nc3cnc4ccc(Cl)cc4c3n2C2CN(C)CC2(F)F)no1 (stereo not shown) [Example 51, 8-chloro-1-(4,4-difluoro-1-methylpyrrolidin-3-yl)-2-[(5-methyl-1,2-oxazol-3-yl)methyl]-1H-imidazo[4,5-c]quinoline] | 8.46 | 8.24 |  |  |
| Cc1cnc(C(O)c2nc3cnc4ccc(Cl)cc4c3n2[C@@H]2CCO[C@H](C)C2)cn1 (single isomer, unassigned) [Example 14] | 7.89 |  |  | 7.85 |
| Cc1cnn(Cc2nc3cnc4ccc(C#N)cc4c3n2C2CN(C)CC2(F)F)n1 (single isomer, unassigned) [Example 4, 1-(4,4-Difluoro-1-methylpyrrolidin-3-yl)-2-[(4-methyl-2H-1,2,3-triazol-2-yl)methyl]-1H-imidazo[4,5-c]quinoline-8-carbonitrile] | 8.48 | 7.75 |  |  |
| C[C@@H]1C[C@H](n2c(Cc3csnn3)nc3cnc4ccc(C(F)(F)F)cc4c32)CCO1 [Example 63, 1-[(2R,4R)-2-methyltetrahydro-2H-pyran-4-yl]-2-(1,2,3-thiadiazol-4-ylmethyl)-8-(trifluoromethyl)-1H-imidazo[4,5-c]quinoline] | 8.52 | 8.16 |  |  |
| CN1CC(n2c(Cn3cc(C4CC4)nn3)nc3cnc4ccc(Cl)cc4c32)C(F)(F)C1 (stereo not shown) [Example 47, 8-chloro-2-[(4-cyclopropyl-1H-1,2,3-triazol-1-yl)methyl]-1-(4,4-difluoro-1-methylpyrrolidin-3-yl)-1H-imidazo[4,5-c]quinoline] | 8.85 | 8.55 |  |  |
| C[C@@H]1C[C@H](n2c(Cc3nccs3)nc3cnc4ccc(C#N)cc4c32)CCO1 [Example 61, 1-[(2R,4R)-2-methyltetrahydro-2H-pyran-4-yl]-2-(1,3-thiazol-2-ylmethyl)-1H-imidazo[4,5-c]quinoline-8-carbonitrile] | 8.38 | 8.24 |  |  |
| COCc1cn(Cc2nc3cnc4ccc(F)cc4c3n2C2CN(C)CC2(F)F)nn1 (stereo not shown) [Example 53, 1-(4,4-difluoro-1-methylpyrrolidin-3-yl)-8-fluoro-2-{[4-(methoxymethyl)-1H-1,2,3-triazol-1-yl]methyl}-1H-imidazo[4,5-c]quinoline] | 8.13 | 8.12 |  |  |
| Cc1cnc(Cc2nc3cnc4ccc(C(F)(F)F)cc4c3n2[C@@H]2CCO[C@H](C)C2)cn1 [Example 29, 2-[(5-methylpyrazin-2-yl)methyl]-1-[(2R,4R)-2-methyltetrahydro-2H-pyran-4-yl]-8-(trifluoromethyl)-1H-imidazo[4,5-c]quinoline] | 8.38 | 8.19 |  |  |
| Cc1cn(Cc2nc3cnc4ccc(Cl)cc4c3n2[C@@H]2CCN(C)C2)nn1 [Example 62, 8-chloro-1-[(3R)-1-methylpyrrolidin-3-yl]-2-[(4-methyl-1H-1,2,3-triazol-1-yl)methyl]-1H-imidazo[4,5-c]quinoline] | 8.19 | 8.24 |  |  |
| N#Cc1ccc2ncc3nc(Cc4nc5ccccc5o4)n([C@@H]4CC[C@H](F)C4)c3c2c1 (relative stereo) [Example 65, 2-(1,3-benzoxazol-2-ylmethyl)-1-[cis-3-fluorocyclopentyl]-1H-imidazo[4,5-c]quinoline-8-carbonitrile] | 8.20 | 8.07 |  |  |
| Cc1cn(Cc2nc3cnc4ccc(Cl)cc4c3n2C2CCOCC2(F)F)nn1 (stereo not shown) [Example 46, 8-chloro-1-(3,3-difluorotetrahydro-2H-pyran-4-yl)-2-[(4-methyl-1H-1,2,3-triazol-1-yl)methyl]-1H-imidazo[4,5-c]quinoline] | 8.12 | 8.03 |  |  |
| Cc1cnc(Cc2nc3cnc4ccc(Cl)cc4c3n2C2CN(C)CC2(F)F)cn1 (stereo not shown) [Example 50, 8-chloro-1-(4,4-difluoro-1-methylpyrrolidin-3-yl)-2-[(5-methylpyrazin-2-yl)methyl]-1H-imidazo[4,5-c]quinoline] | 8.95 | 8.30 |  |  |

Further lines, with some results ahead:

| pIC50 (mutant G2019S LRRK2) | pIC50 [1, 2] | pIC50 ([1]; LanthaScreen, LRRKtide substrate, 1 mM ATP) | Structure (SMILES) | pIC50 [1] |
| --- | --- | --- | --- | --- |
| 8.10 | 7.86 |  | Cc1nnc(Cc2nc3cnc4ccc(Cl)cc4c3n2C2CN(C)CC2(F)F)s1 (stereo not shown) [Example 89, 8-chloro-1-(4,4-difluoro-1-methylpyrrolidin-3-yl)-2-[(5-methyl-1,3,4-thiadiazol-2-yl)methyl]-1H-imidazo[4,5-c]quinoline] |  |
| 7.93 | 7.89 |  | Cc1cnc(Cc2nc3cnc4ccc(Cl)cc4c3n2[C@@H]2CC[C@H](F)C2)cn1 (relative stereo) [Example 77, 8-chloro-1-[cis-3-fluorocyclopentyl]-2-[(5-methylpyrazin-2-yl)methyl]-1H-imidazo[4,5-c]quinoline] |  |
| 8.16 | 7.96 |  | Cc1nnc(Cc2nc3cnc4ccc(Cl)cc4c3n2C2CCOCC2(F)F)s1 (stereo not shown) [Example 92, 8-chloro-1-(3,3-difluorotetrahydro-2H-pyran-4-yl)-2-[(5-methyl-1,3,4-thiadiazol-2-yl)methyl]-1H-imidazo[4,5-c]quinoline] |  |
| 8.09 | 8.03 |  | Cc1nc(Cc2nc3cnc4ccc(Cl)cc4c3n2C2CN(C)CC2(F)F)no1 (stereo not shown) [Example 88, 8-chloro-1-(4,4-difluoro-1-methylpyrrolidin-3-yl)-2-[(5-methyl-1,2,4-oxadiazol-3-yl)methyl]-1H-imidazo[4,5-c]quinoline] |  |
| 8.12 | 7.86 |  | Cc1nnc(Cc2nc3cnc4ccc(C(F)(F)F)cc4c3n2[C@@H]2CCO[C@H](C)C2)o1 [Example 70, 2-[(5-methyl-1,3,4-oxadiazol-2-yl)methyl]-1-[(2R,4R)-2-methyltetrahydro-2H-pyran-4-yl]-8-(trifluoromethyl)-1H-imidazo[4,5-c]quinoline] |  |
| 7.87 | 7.58 |  | Cc1nnc(Cc2nc3cnc4ccc(C(F)(F)F)cc4c3n2[C@@H]2CCO[C@H](C)C2)s1 [Example 74, 1-[(2R,4R)-2-methyltetrahydro-2H-pyran-4-yl]-2-[(5-methyl-1,3,4-thiadiazol-2-yl)methyl]-8-(trifluoromethyl)-1H-imidazo[4,5-c]quinoline] |  |
| 7.94 | 8.10 |  | CN1CC(n2c(Cn3cnnn3)nc3cnc4ccc(Cl)cc4c32)C(F)(F)C1 (stereo not shown) [Example 83, 8-chloro-1-(4,4-difluoro-1-methylpyrrolidin-3-yl)-2-(1H-tetrazol-1-ylmethyl)-1H-imidazo[4,5-c]quinoline] |  |
| 8.14 | 7.83 |  | Cc1cn(Cc2nc3cnc4ccc(C(F)F)cc4c3n2[C@@H]2CCO[C@H](C)C2)nn1 [Example 90, 8-(difluoromethyl)-1-[(2R,4R)-2-methyltetrahydro-2H-pyran-4-yl]-2-[(4-methyl-1H-1,2,3-triazol-1-yl)methyl]-1H-imidazo[4,5-c]quinoline] |  |
| 8.06 | 7.92 | 7.96 | FC1(F)COCCC1n1c(Cn2cncn2)nc2cnc3ccc(Cl)cc3c21 (stereo not shown) [Example 93, 8-chloro-1-(3,3-difluorotetrahydro-2H-pyran-4-yl)-2-(1H-1,2,4-triazol-1-ylmethyl)-1H-imidazo[4,5-c]quinoline] |  |
